Assay results taken from the supplement of paper PMC10307832.

Assays:
Assay in all cases: relative viability (nuclei count vs DMSO), 5 days (fraction); higher = more cells survive
[1] = compound: CCn1c(-c2nonc2N)nc2cnc(Oc3cccc(NC(=O)c4ccc(OCCN5CCOCC5)cc4)c3)cc21 + CC1(C)CCC(c2ccc(Cl)cc2)=C(CN2CCN(c3ccc(C(=O)NS(=O)(=O)c4ccc(N[C@H](CCN5CCOCC5)CSc5ccccc5)c(S(=O)(=O)C(F)(F)F)c4)cc3)CC2)C1 [Navitoclax] (partner 0.5 µM)
Method in brief: (§1)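 Relative viability is defined as nuclei in treated wells over nuclei in vehicle wells. Duplicate plates were run and medians reported. Lung cancer cell lines in 1536-well plates were dosed by pin tool one day after seeding, with one drug or with a fixed anchor-drug dose plus five library-drug doses (not always all listed) in √10 steps, and nuclei were counted after 5 days.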

Mirin + Alpelisib = compound: N=C1NC(=O)/C(=C/c2ccc(O)cc2)S1 [Mirin] + Cc1nc(NC(=O)N2CCC[C@H]2C(N)=O)sc1-c1ccnc(C(C)(C)C(F)(F)F)c1 [Alpelisib] (partner 2 µM)
Method in brief: as §1

Mirin + Foretinib = compound: N=C1NC(=O)/C(=C/c2ccc(O)cc2)S1 [Mirin] + COc1cc2c(Oc3ccc(NC(=O)C4(C(=O)Nc5ccc(F)cc5)CC4)cc3F)ccnc2cc1OCCCN1CCOCC1 [Foretinib] (partner 0.25 µM)
Method in brief: as §1

[2] = compound: CCC1=CN=CN=C1N2CCN(CC2)CC3=NC4=C(N3)C=C(C=C4)C(F)(F)F + C[C@]1(O)C[C@@H](c2nc(-c3ccc4ccc(-c5ccccc5)nc4c3)c3c(N)nccn32)C1 [Linsitinib] (partner 1 µM)
Method in brief: as §1

| Cell Line | relative viability ([1]; first compound 0.04 µM) | relative viability ([1]; first compound 0.1265 µM) | relative viability ([1]; first compound 0.4 µM) | relative viability ([1]; first compound 1.265 µM) | relative viability ([1]; first compound 4 µM) | relative viability (Mirin + Alpelisib; first compound 0.25 µM) | relative viability (Mirin + Alpelisib; first compound 0.7906 µM) | relative viability (Mirin + Alpelisib; first compound 2.5 µM) | relative viability (Mirin + Alpelisib; first compound 7.906 µM) | relative viability (Mirin + Alpelisib; first compound 25 µM) | relative viability (Mirin + Foretinib; first compound 0.25 µM) | relative viability (Mirin + Foretinib; first compound 0.7906 µM) | relative viability (Mirin + Foretinib; first compound 2.5 µM) | relative viability (Mirin + Foretinib; first compound 7.906 µM) | relative viability (Mirin + Foretinib; first compound 25 µM) | relative viability ([2]; first compound 0.04 µM) | relative viability ([2]; first compound 0.1265 µM) | relative viability ([2]; first compound 0.4 µM) | relative viability ([2]; first compound 1.265 µM) | relative viability ([2]; first compound 4 µM) |
| --- | --- | --- | --- | --- | --- | --- | --- | --- | --- | --- | --- | --- | --- | --- | --- | --- | --- | --- | --- | --- |
| NCI-H596 | 1.06 | 0.962 | 1.01 | 1.01 | 1.01 | 0.438 | 0.45 | 0.481 | 0.513 | 0.361 | 0.826 | 0.953 | 1.03 | 0.916 | 1.08 | 1.14 | 1.08 | 1.09 | 1.06 | 1.02 |
| NCI-H1703 | 1.03 | 0.886 | 0.474 | 0.296 | 0.233 | 0.363 | 0.259 | 0.314 |  | 0.213 | 0.309 | 0.31 | 0.368 | 0.413 | 0.3 | 0.595 | 0.669 | 0.851 | 0.473 | 0.771 |
| LCLC-97TM1 | 0.481 | 0.333 |  | 0.463 | 0.442 | 0.253 | 0.31 | 0.197 | 0.18 | 0.129 | 0.762 | 0.848 | 0.89 | 0.991 | 0.703 | 0.23 | 0.185 | 0.158 | 0.166 | 0.202 |
| NCI-H1793 | 0.315 | 0.38 | 0.305 | 0.191 | 0.238 | 0.724 | 0.747 | 0.775 | 0.764 | 0.482 | 0.731 |  | 0.739 | 0.777 | 0.559 | 1 | 0.677 | 0.825 |  | 0.895 |
| NCI-H322M | 1.39 | 1.16 | 1.28 | 1.26 | 1.32 | 0.783 | 0.844 | 0.734 | 0.829 | 0.844 | 1.06 | 1.02 | 1.07 | 0.934 | 1.05 | 0.979 | 0.801 | 0.911 | 0.909 | 1.02 |
| PC-3 [JPC-3] | 0.846 | 0.814 | 0.801 | 0.866 | 0.779 | 1.04 | 1.02 | 1.03 | 1.07 | 1.18 | 1.05 | 1.13 | 1.02 | 1.14 | 1.3 | 0.972 | 0.882 | 0.969 | 0.906 | 0.911 |
| EPLC-272H | 1.22 | 1.07 | 1.1 | 1.05 | 1.1 | 0.89 |  | 1.02 | 0.779 | 0.815 | 0.744 |  | 0.602 | 0.519 | 0.306 | 1.07 | 0.96 | 1 | 1.43 | 1.33 |
| A-427 | 1.04 | 1.07 | 0.887 | 0.964 | 1.01 | 1.2 |  | 1.15 | 1.1 | 1.14 | 1.06 |  | 1.07 | 1.05 | 0.607 | 1.12 | 1.11 | 1.03 | 1.05 | 0.857 |
